Experimental findings from patent publication US10533231B2, “Artificial bioluminescent enzyme” (NATIONAL INSTITUTE OF ADVANCED INDUSTRIAL SCIENCE AND …, priority 2012, dated 2020) are described below.

For data set [1], the target named is estrogen receptor (ER LBD) (Homo sapiens, UniProt P03372). The note with it: 10^−5 M, 20 minutes, COS-7 cells with pSimer-r2, C16 one-shot buffer.
Data set [2] has as its system artificial luciferase (ALuc). The experiment in a line: Search for assay buffer compatible with C3 (Example 2-2). It is filed as cell-based. The note with it: C3 lysis; 8- and 16-minute point. The protocol: After 16-hour incubation in a CO2 incubator, 50 μL of a C3 solution was added to each well to allow for cell lysis for 20 minutes. Substrate-containing assay buffers shown in FIG. 24 were individually added simultaneously (50 μL each) to the lysate, and the relative luminescence intensities were immediately measured with an LAS-4000 (Fujifilm). After the substrate-containing assay buffers were further added, the luminescence at the 8- and 16-minute point was measured to examine the luminescence stability.

In data set [3] the test system is EB3 cells expressing cSimgr13. The experiment in a line: Stress hormone sensitivity of ES cells expressing cSimgr13 (Example 1-17). Format: cell-based. The note with it: 10^−5 M, 20 minutes. The protocol: Novel ES cells expressing cSimgr13, which is an integrated-molecule-format bioluminescent probe containing the ALuc of Example 10 in its frame structure were established to visualize stress hormone sensitivity (FIG. 17). First, EB3 cells, which are feeder-free embryonic stem cells (ES), were cultured in a 10 cm dish, and then a pcDNA3.1 (+) vector encoding cSimgr13 was introduced into the EB3 cells. In the presence of G418, transformed cells stably expressing cSimgr13 were established.
One day after the subculturing of the transformed cells in a microslide, some of the cells in the wells were used as a control (0.1% DMSO), and the others were stimulated with 10^−5 M stress hormone (cortisol) for 20 minutes. Subsequently, after lysis, the cells were illuminated using a substrate-containing assay buffer in accordance with the protocol of luminescence assay kit produced by Promega, and the luminescence intensity was measured using an LAS-4000.

Data set [4] concerns COS-7 cells. The data set can be described thus: Toxicity of STS with luminescence measurement device and luminometer (Example 1-11). It is filed as cell-based, monkey. The note with it: STS 1 μM, 10 minutes, membrane-localized probe. The protocol:
(§1) Using the luminescence measurement device, the toxicity of a cell death-inducing chemical substance (STS) was measured (see FIG. 11). Monkey kidney-derived COS-7 cells were scattered in a commercially available microslide for cell culturing (produced by ibidi), and the cells were cultured until 90% of the microslide area was filled with the cells. The cells were transfected with a plasmid encoding a bioluminescence probe, followed by culturing for another 24 hours. The cells cultured in the microslide were stimulated with or without STS (final concentration: 1 μM) for 10 minutes (FIG. 11B).
The luminescence measurement was performed in the following manner. The microslide was washed once with an HBSS buffer, and a substrate-containing HBSS buffer (100 μL) was simultaneously introduced into each microslide channel, and the microslide was immediately fixed to the luminescent measurement device. […] The luminescence value was measured by changing the channels and the filters (three-second light condensation, n=3, see FIG. 11C).

Data set [5] concerns COS-7 cells. The data set can be described thus: Cytotoxic measurement using bioluminescent capsule containing ALuc16 (Example 1-13). It is filed as cell-based. The note with it: stimulated for two minutes, capsule SEQ ID NO: 19, LAS-4000. The protocol: The cytotoxicity of a chemical substance was measured using the bioluminescent capsule (SEQ ID NO: 19) containing ALuc 16 in its frame structure (FIG. 13). First, COS-7 cells were cultured in a 6-channel microslide, and a gene encoding SEQ ID NO: 19 was introduced into the cells, followed by culturing for another 16 hours. Subsequently, the cells were stimulated for two minutes with or without the cytotoxic substance (STS), and the luminescence image showing a bioluminescence intensity difference in a substrate-containing solution was evaluated using an LAS-4000 (FujiFilm).

In data set [6] the test system is COS-7 cells. The data set can be described thus: Toxicity of STS by change in luminescence spectrum (Example 1-12). Format: cell-based, monkey. The settings on record: STS (1 μM) stimulation vs without, 10 minutes. As to the method:
as §1, with “device of the present invention,” for “device,”, “measured based on changes in luminescence spectrum” for “measured”, “12). First, monkey” for “11). Monkey”, “for” for “for another”, “[…])” for “μM)”, “minutes.” for “minutes (FIG. 11B).”
The luminescence measurement was performed in the following manner. The microslide was washed once with an […] buffer, and a substrate-containing HBSS buffer (100 μL) was simultaneously introduced into each slide channel, and the microslide was mounted on the measurement device. After the device was covered with a mirror cap, the device was further mounted on a conventional spectrum meter (AB-1850; ATTO) (FIG. 12A). The luminescence spectrum from each channel was measured (two-minute light condensation, n=3, see FIG. 12B).

Data set [7] has as its target T1, integrated-molecule-format bioluminescent probe with androgen receptor (Homo sapiens, UniProt P10275).
T1 construct: an androgen receptor (AR LED) was inserted therebetween; expressed in transfected cells; host or cells: COS-7
T1 sequence (P10275 669-900 limits assumed): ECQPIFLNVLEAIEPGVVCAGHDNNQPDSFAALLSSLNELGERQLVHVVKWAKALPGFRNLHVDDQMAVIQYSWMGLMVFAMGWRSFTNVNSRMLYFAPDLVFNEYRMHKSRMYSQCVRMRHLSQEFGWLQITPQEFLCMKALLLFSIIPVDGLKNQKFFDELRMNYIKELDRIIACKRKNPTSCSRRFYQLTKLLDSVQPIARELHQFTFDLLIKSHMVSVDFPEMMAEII
The experiment in a line: Effect of adding halogen ions, androgen probe (Example 2-5). Format: cell-based. The note with it: about 100 mM. As to the method: After 16-hour incubation in a CO2 incubator, 50 μL of a C3 solution was added to each well to allow for cell lysis for 20 minutes.

In data set [8] the test system is COS-7 cells. The data set can be described thus: Luminescence image of COS-7 cell lysate on microslide (Example 1-20). The settings on record: Promega lysate and assay buffer. It is filed as cell-based. The protocol: Similarly, COS-7 cells were cultured in a microslide produced by ibidi. After the cells were raised to a certain level, the following genes were transferred to the cells in the channels. Channel group 1: pcDNA3.1 plasmid having a gene encoding Cypridina luciferase; Channel group 2: pcDNA3.1 plasmid having a gene encoding A16-KDEL; and Channel group 3: pcDNA3.1 plasmid having a gene encoding a luminescent capsule based on A16 (i.e., A16-MLS).
After gene transfer, culturing was performed for another 16 hours. 20 minutes before imaging, 40 μL of a lysate buffer produced by Promega was added, and the resultant was allowed to stand for 20 minutes. Further, a substrate-containing assay buffer produced by Promega was added to the medium of each channel, and the luminescence image obtained after the addition was measured using an LAS-4000 (FujiFilm).

The subject of data set [9] is COS-7 cells. The data set can be described thus: Living cell imaging (Example 1-20). Format: cell-based. The note with it: HBSS buffer containing substrate. As to the method:
First, COS-7 cells were cultured in a microslide produced by ibidi. After the cells were raised to a certain level, the following genes were transferred to the cells in the channels. Channel group 1: pcDNA3.1 plasmid having a gene encoding a luminescent enzyme derived from Renilla reniformis (RLuc8.6-535); Channel group 2: pcDNA3.1 plasmid having a gene encoding A16-KDEL; and Channel group 3: pcDNA3.1 plasmid having a gene encoding a luminescent capsule based on ALuc16 (i.e., A16-MLS).
After gene transfer, culturing was performed for another 16 hours. Immediately before imaging, the medium was substituted with an HBSS buffer containing a substrate, and the luminescence image obtained after the substitution was measured using an LAS-4000 (FujiFilm).

Data set [10] is described as follows: Luminescent capsule probe, luminescence stability and intensity (Example 1-7). It is filed as cell-based. The note with it: localized in the endoplasmic reticulum. From the text: A “luminescent capsule” probe containing the artificial luciferase (ALuc) of the present invention in its frame structure was developed (FIG. 7). The basic molecular structure of the luminescent capsule of the present invention comprises an extracellular secretion signal (SP), ALuc, a suitable cargo protein (peptide), and a membrane localization signal. Because of the SP, the probe is first transferred to the endoplasmic reticulum, and then transferred from the endoplasmic reticulum to the plasma membrane. This probe is designed to finally localize in the plasma membrane by the function of MLS (FIG. 7 AB).
The luminescent capsule has the ability to localize a fluorescence protein (mPlum), other luciferases (RLuc8.6-535), and a peptide (DEVD sequence, etc.) in the plasma membrane. […] The luminescent reaction speed of the luminescent capsule after substrate injection was faster than those of other molecules (FIG. 7D). Further, the luminescent capsule containing a […] (SEQ ID NO: 19) was confirmed to have a different luminescent reaction speed according to the presence or absence of a cell death-inducing chemical substance (STS) (FIG. 7E). The luminescence stability of the luminescent capsule was also confirmed by using a microplate reader for luminescence measurement (FIG. 7F).

The subject of data set [11] is stress hormone receptor (glucocorticoid receptor ligand binding domain; GR HLBD). The data set can be described thus: Integrated-molecule-format bioluminescent probes, ALuc16 bisection sites (Example 1-10). It is filed as cell-based. The note with it: presence/absence of cortisol. The text has this:
First, ALuc was bisected into two segments, and arranged right and left. A stress hormone receptor (glucocorticoid receptor ligand binding domain; GR HLBD) and its binding peptide (LXXLL motif) were respectively connected to the end of the two segments. As shown in the lower row of FIG. 10A, the working mechanism of the probe is such that a molecule is folded in the presence of a ligand, thus recovering the luminescence intensity.
In the bisection of ALuc16, the probes were named as cSimgr8 (SEQ ID NO: 21) to cSimgr14 according to its bisection point. The bisection point corresponding to each plasmid is as follows: cSimgr8 (125/126), cSimgr9 (129/130), cSimgr10 (133/134), cSimgr11 (137/138), cSimgr12 (137/138; containing a mutant at the joint portion), cSimgr13 (141/142), and cSimgr14 (146/147).

Sequence of estrogen receptor (ER LBD) (P03372 311-547 limits assumed, species assumed): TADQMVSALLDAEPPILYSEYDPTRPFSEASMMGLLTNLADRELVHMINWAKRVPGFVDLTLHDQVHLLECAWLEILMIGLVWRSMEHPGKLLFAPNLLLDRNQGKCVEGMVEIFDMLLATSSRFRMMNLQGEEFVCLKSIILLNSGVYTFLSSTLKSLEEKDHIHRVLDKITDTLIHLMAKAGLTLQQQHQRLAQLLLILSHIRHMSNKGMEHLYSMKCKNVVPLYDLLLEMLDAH

4-hydroxytamoxifen [OHT]: in data set [1], the “luminescence higher than the background” value is reported as “about 5 folds”. In the case of bovine serum albumin [BSA], the “luminescence stability with assay buffer” value in data set [2] is “the luminescence intensity and luminescence stability were poor”.

In the case of `C[C@]12CCC(=O)C=C1CC[C@@H]1[C@@H]2[C@@H](O)C[C@@]2(C)[C@H]1CC[C@]2(O)C(=O)CO` [cortisol], the “luminescence vs control (0.1% DMSO)” value in [3] is “stronger luminescence than the control”. For the molecule `CN[C@@H]1C[C@H]2O[C@@](C)([C@@H]1OC)n1c3ccccc3c3c4c(c5c6ccccc6n2c5c31)C(=O)NC4` [STS], the “increase of luminescence intensity” value with COS-7 cells [4] is given as “about 75%”. Also, the “luminescence intensity with vs without cytotoxic substance” value in the data set on COS-7 cells [5] is given as “two folds higher”. In the data set with COS-7 cells [6], the “change of luminescence spectrum” value was “increase in the luminescence intensity in the full wavelength”. Regarding `[Br-].[K+]` [KBr], in data set [7], the “effect of halogen ion addition” value is on record as “excellent results”.

B1: A16-KDEL: ALuc16 with KDEL, localized in the endoplasmic reticulum, SEQ ID NO: 18 (protein)
chain: MMGIKVLFALICFALVQANPTENKDDIDIVGVEGKFGTTDLETDLFTIVEDMNVISRDTDVDANRADRGRRGKLPGKKLPLEVLKELEANAQKAGCTRGCLICLSHIKCTAKMKKWLPGRCESWEGDKETGQGGIGEAIVDIPEIPGFKDLEPMEQFIAQVDLCVDCTTGCLKGLANVKCSDLLKKWLPSRCATFASKIQAQVDKIKGAGGSKDEL
modifications: KDEL ER retention signal; Synthetic KDEL-linked ALuc16
Consider B1, for which the “luminescence of cell lysate” value in the data set with COS-7 cells [8] is “strong luminescence”. For the same molecule, the “luminescence image of living cells” value in the data set with COS-7 cells [9] was “strong luminescence image”. Besides, in [10], the luminescence intensity entry is given as “poor luminescence intensity”.

B2: cSimgr8: integrated-molecule-format bioluminescent probe, ALuc16 bisected at 125/126, SEQ ID NO: 21 (protein)
chain: MNALLRYLLDKDGSGIGEAIVDIPEIPGFKDLEPMEQFIAQVDLCVDCTTGCLKGLANVKCSDLLKKWLPSRCATFASKIQAQVDKIKGAGGLSGSGGNPTENKDDIDIVGVEGKFGTTDLETDLFTIVEDMNVISRDTDVDANRADRGRRGKLPGKKLPLEVLKELEANAQKAGCTRGCLICLSHIKCTAKMKKWLPGRCESWEGDKETGQGGGGGTMNLEARKTKKKIKGIQQATTGVSQETSENPGNKTIVPATLPQLTPTLVSLLEVIEPEVLYAGYDSSVPDSTWRIMTTLNMLGGRQVIAAVKWAKAIPGFRNLHLDDQMTLLQYSWMFLMAFALGWRSYRQSSANLLCFAPDLIINEQRMTLPCMYDQCKHMLYVSSELHRLQVSYEEYLCMKTLLLLSSVPKDGLKSQELFDEIRMTYIKELGKAIVKREGNSSQNWQRFYQLTKLLDSMHEVVENLLNYCFQTFLDKTMSIEFPEMLAEIITNQIPKYSNGNIKKLLFHQK
modifications: Synthetic cSimgr8 (single-chain probe)
Turning to B2, in data set [11], the “S/N ratio of probe” value is “good S/N ratio” and the “absolute luminescence intensity of probe” value is “low absolute luminescence intensity”.
